Source: patent publication US20250339443A1, “METHOD FOR TREATING OR PREVENTING CALCIUM RELEASE-ACTIVATED CALCIUM CHANNEL OR DISCOIDIN DOMAIN RECEPTOR 2 RELATED DISORDERS OR CONDITIONS” (LumiSTAR Biotechnology, Inc., priority 2023, published 2025)
Counter-ions that a name gives are not always drawn.

Legend:
[1] = tested on: THP-1 derived macrophages; experiment: Cytokine secretion in macrophages (ELISA); type: cell-based, human; conditions: IFN-γ/LPS induction, culture medium
Jurkat T cells = experiment: Cytokine secretion in T cells (ELISA); type: cell-based, human; conditions: PHA/PMA induction, culture medium
CRAC channel = CRAC channel (Homo sapiens, UniProt Q96D31); experiment: CRAC channel activity / SOCE by Fura 2-AM cytosolic Ca2+ imaging in HEK293T cells; type: cell-based; parameters: endogenous in cells; host or cells: HEK293T; conditions: 10 μM, 1 μM thapsigargin then 2 mM Ca2+
Chain of CRAC channel (Q96D31 whole entry): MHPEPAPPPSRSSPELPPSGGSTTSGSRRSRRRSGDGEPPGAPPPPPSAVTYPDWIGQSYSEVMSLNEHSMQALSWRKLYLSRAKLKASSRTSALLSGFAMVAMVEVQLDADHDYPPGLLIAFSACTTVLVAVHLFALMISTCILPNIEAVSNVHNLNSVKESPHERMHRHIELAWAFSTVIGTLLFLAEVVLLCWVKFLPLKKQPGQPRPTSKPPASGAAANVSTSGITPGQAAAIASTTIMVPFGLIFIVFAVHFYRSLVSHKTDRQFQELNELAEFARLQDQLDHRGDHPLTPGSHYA
Procedure: CRAC channel activity was evaluated by applying 1 μM thapsigargin (Thap.) in a calcium-free solution to deplete the endoplasmic reticulum calcium store, followed by the reintroduction of 2 mM Ca^2+ in an external solution. The concentration of cytosolic calcium ions increases as calcium flows through the CRAC channel, leading to the second peak in cytosolic calcium waves. […] Each bar represents the mean value derived from 47 to 103 cells. […] Each bar represents the mean value derived from 83 to 176 cells. […] Further analyses are presented in FIG. 1I and FIG. 1J, where the second peak of each wave and rate of entry were analyzed. Each bar represents the mean value derived from 72 to 108 cells. […] In all the graphs, each bar represents mean±SEM and *, **, and *** denote p-value <0.05, 0.01, and 0.001, respectively.
Cells were then washed and incubated with the same solution in addition to the supplement of Fura 2-AM for another 15 minutes for fully de-esterification. […] 1 μM thapsigargin was added to induce endoplasmic reticulum (ER) calcium store depletion followed by applying 2 mM calcium solution to assess the activation of calcium release-activated calcium (CRAC) channels. Cells were alternately excited at 340 and 380 nm, and images were acquired every 2 seconds. […] All the images were analyzed by using IGOR Pro software. […]

DDR2 = molecular target: T1, DDR2 (Homo sapiens, UniProt Q16832); experiment: DDR2 activation (anti-phosphotyrosine Western blot) in HEK293T cells overexpressing DDR2, collagen-stimulated; type: cell-based; conditions: 10 μM pretreatment 30 minutes, then 50 μg/mL type I collagen 12 hours
T1 construct: expressed in transfected cells; host or cells: HEK293T
T1 sequence (Q16832 22-855): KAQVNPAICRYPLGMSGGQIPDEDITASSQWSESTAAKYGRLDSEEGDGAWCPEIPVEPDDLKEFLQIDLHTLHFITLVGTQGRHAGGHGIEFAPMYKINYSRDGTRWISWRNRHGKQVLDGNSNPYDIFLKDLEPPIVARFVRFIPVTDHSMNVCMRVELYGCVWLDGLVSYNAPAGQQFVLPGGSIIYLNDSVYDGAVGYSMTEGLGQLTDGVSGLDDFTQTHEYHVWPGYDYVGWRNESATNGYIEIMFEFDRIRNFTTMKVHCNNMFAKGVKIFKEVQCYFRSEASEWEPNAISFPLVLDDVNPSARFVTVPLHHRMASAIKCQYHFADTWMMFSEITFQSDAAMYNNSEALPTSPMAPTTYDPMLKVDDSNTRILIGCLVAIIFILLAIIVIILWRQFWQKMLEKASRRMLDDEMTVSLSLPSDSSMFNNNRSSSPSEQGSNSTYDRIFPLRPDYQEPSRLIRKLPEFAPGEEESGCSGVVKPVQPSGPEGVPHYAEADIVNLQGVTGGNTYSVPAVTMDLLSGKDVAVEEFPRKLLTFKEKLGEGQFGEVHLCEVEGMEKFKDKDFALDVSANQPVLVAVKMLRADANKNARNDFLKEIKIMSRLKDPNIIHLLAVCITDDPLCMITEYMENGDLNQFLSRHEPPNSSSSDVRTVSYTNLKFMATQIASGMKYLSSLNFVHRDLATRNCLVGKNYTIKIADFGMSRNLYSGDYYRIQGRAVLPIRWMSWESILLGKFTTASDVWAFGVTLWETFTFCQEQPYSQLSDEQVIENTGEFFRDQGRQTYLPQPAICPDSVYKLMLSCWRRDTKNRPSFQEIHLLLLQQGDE
Procedure: FIG. 1A, FIG. 1B, FIG. 1C, FIG. 1D, FIG. 1E, FIG. 1F, FIG. 1G, FIG. 1H, FIG. 1I, FIG. 1J, FIG. 1K, FIG. 1L, FIG. 1M, and FIG. 1N show WRG-28 and atovaquone (Av) suppress the activation of DDR2 and calcium release-activated calcium (CRAC) channel. FIG. 1A indicates HEK293T cells were transiently overexpressed with DDR2 and then pretreated with different compounds (10 μM), including WRG-28, Av, donepezil hydrochloride (Dh), terazosin hydrochloride (Th), verapamil and flecainide for 30 minutes. Verapamil and flecainide were used as negative control here. After that, cells were treated with 50 μg/mL type I collagen for 12 hours. Cell lysates were harvested and subjected to Western blot analysis with antibodies against phosphotyrosine antibody (clone 4G10), DDR2, and β-actin. […] CRAC channel activity was evaluated by applying 1 μM thapsigargin (Thap.) in a calcium-free solution to deplete the endoplasmic reticulum calcium store, followed by the reintroduction of 2 mM Ca^2+ in an external solution. […] Further analyses are presented in FIG. 1I and FIG. 1J, where the second peak of each wave and rate of entry were analyzed. […] The Orai1 and Stim1 puncta in HEK293T cells overexpressed with CFP-Orai1/Stim1-mCherry were assessed. […]
Cell lysates were harvested in RIPA buffer (150 mM NaCl, 1 mM EGTA, 50 mM Tris pH 7.4, 10% glycerol, 1% Triton X-100, 1% sodium deoxycholate, 0.1% SDS, and protease inhibitor cocktail) and collected from culture dish with cell scrapers. […] The protein expression levels were assessed by specific primary antibodies, including antibodies against phosphotyrosine (clone 4G10; Millipore), DDR2 (R&D), α-SMA (Sigma), Collagen 1a1 (Boster), E-cadherin (BD Biosciences), SGLT2 (Proteintech), NHE1 (Novus) and β-actin (Clone C4, Millipore), followed by incubating with secondary antibodies conjugated with HRP and detected by ECL kit (Thermo Scientific).
To examine the impact of these compounds on DDR2 activation, HEK293T cells overexpressing DDR2 were pretreated with various compounds. […] The activation of DDR2 was evaluated using an anti-phosphotyrosine antibody. […]

[2] = tested on: BLM-induced pulmonary fibrosis; experiment: Bleomycin-induced lung fibrosis mouse model; type: in vivo; conditions: 14 days, Nintedanib 60 mg/kg/day, WRG-28 5 mg/kg/day, Av 5 mg/kg/day
Excerpt: A Bleomycin (BLM)-induced lung fibrosis mouse model was used, and the timelines of operation and drug delivery are depicted in FIG. 11A. […] The hydroxyproline content, serving as a marker of collagen deposition, was extracted from the right lobe and analyzed; the results are shown in FIG. 11C. FIG. 11D depicts histological analysis derived from the left lobe, quantifying the fibrotic area through staining with Masson's Trichrome and Picrosirius red, respectively.
8-to-10-week-old male WT (C57BL/6) mice received intratracheal instillation of bleomycin (bleocin; Nippon Kayaku) at the dose of 3 mg/kg diluted in PBS or PBS only (sham). To study fibrosis, lung samples were collected on day 21 for further analysis.
Lung function was assessed using the flexi Vent system (Scireq, Montreal, QC, Canada). Mice were tracheostomized and ventilated at a rate of 150 breaths/min, tidal volume of 10 ml/kg, and a positive end-expiratory pressure (PEEP) of 2-3 cmH2O. A deep inflation perturbation was used to estimate the inspiratory capacity (IC). Pressure-Volume loops were generated by constant increasing pressure, followed by regular decreasing pressure. Other lung function parameters like resistance, compliance, and elastance were measured by using SnapShot-150.
Levels of hydroxyproline in lung tissues were measured using the Hydroxyproline Colorimetric Assay kit (BioVision, Milpitas, CA, USA). Briefly, 10 mg of frozen right middle lobes homogenized in 100 μL of hydrochloric acid (HCl, 12 N), and hydrolyzed at 120° C. for 3 h. Then, 10 μL of individual samples were used to quantify the absorbance at 560 nm. Hydroxyproline content was presented in μg per lobe.
Mouse left lungs were fixed overnight in 4% paraformaldehyde (PFA), embedded in paraffin, and sectioned in 5 μm thickness for picrosirius red (Abcam, Cambridge, UK) and Masson's trichrome staining (Sigma Aldrich, MO, USA). Measurement of fibrotic area was quantified using ImageJ software (NIH, http://rsbweb.nih.gov/ij/).
The efficacy of WRG-28 and Av in treating pulmonary fibrosis was examined in vivo using a BLM-induced pulmonary fibrosis mouse model for evaluation. 50 μL of Bleomycin (BLM, 3 mg/kg) or PBS were introduced by intratracheal instillation on day 0 to induce fibrosis or serve as the control group, respectively. This was followed by the administration of various compounds for 14 days (Nintedanib: 60 mg/kg/day, WRG-28:5 mg/kg/day, Av: 5 mg/kg/day). Lung function evaluation was conducted on day 21 (FIG. 11A). Nintedanib, an FDA-approved drug for idiopathic pulmonary fibrosis (IPF) treatment, was used as the positive control. The results of the lung function evaluation are depicted in FIG. 11B. […] The degree of these changes can be reversed through treatment with Nintedanib, WRG-28 or Av. […] Histological analysis was conducted through staining techniques to quantify the fibrotic area.

Cc1cccc(F)c1C(=O)Nc1cnc(-c2cc3c(cc2Cl)OC(F)(F)O3)cn1 [CM-4620]
secretion of IL-2 in macrophages [1]: significantly reduced
secretion of IL-6 in macrophages [1]: significantly reduced
secretion of TNF-β in macrophages [1]: significantly reduced
secretion of IL-2 in T cells (Jurkat T cells): significantly reduced

COc1cc2c(cc1OC)C(=O)C(CC1CCN(Cc3ccccc3)CC1)C2 (stereo not shown) [Dh, donepezil hydrochloride]
second peak and rate of SOCE (CRAC channel): did not show significant effects
activation of DDR2 (phosphotyrosine) (DDR2): significantly reduced

COC(=O)c1ccc2c(c1)NC(=O)/C2=C(\Nc1ccc(N(C)C(=O)CN2CCN(C)CC2)cc1)c1ccccc1 [Nintedanib]
BLM-induced changes in lung function (capacity, compliance, resistance, elastance) ([2]; day 21): reversed
fibrotic area (Masson's trichrome and Picrosirius Red staining) ([2]; left lobe): effectively reduces
hydroxyproline content (degree of fibrosis) ([2]; right lobe): inhibits the progression of fibrosis

COc1cc2nc(N3CCN(C(=O)C4CCCO4)CC3)nc(N)c2cc1OC (stereo not shown) [Th, terazosin hydrochloride]
activation of DDR2 (phosphotyrosine) (DDR2): significantly reduced
